Data on 1 substance can be found in patent US9289471B2, “Product and process for liquefaction of mucus or sputum” (National Jewish Health, priority 2002, dated 2016).

Assay [1] is described as follows: Compaction assay: percent liquid fraction of CF sputum. Also noted: species or system human. Conditions: for percent liquid fraction: 20 min (FIG. 3A). On the procedure: CF sputum stored at −80° C. was thawed at room temperature and aliquoted into 1.5 ml Eppendorf centrifuge tubes at volumes of 275 μl using a positive displacement pipette (Rainin, Emeryville, Calif.). Sputum samples were subjected to either diluent (H2O), Trx+TR+NADPH, GSH+glutathione reductase+NADPH, dithiothreitol (DTT) or N-acetylcysteine treatment by the addition of 25 μl of H2O containing the appropriate molar concentration of each agent. After brief vortexing (˜1 second), sample tubes were loaded onto a microtube rotisserie (Barnstead, Dubuque, Iowa) and incubated at 37° C. for 20 minutes. Samples were then processed for compaction assay according to methodology originated by Daugherty et al. (Daugherty et al., Biomaterials 16:553-558, 1995). To perform the assay, the contents of each sample were loaded into 100 μl glass micro-capillary tubes (Fisher Scientific) that had been previously welded to 200 μl pipette tips in order to achieve a tight fit. Three modified capillary tubes were used to draw up >90% of each sputum sample. Capillary tubes were then removed from their pipette tip, sealed with clay, and centrifuged for 10 minutes in a hematocrit centrifuge (IEC, Needham Heights, Mass.), followed by measurement of the length in millimeters of the gel (solid) and aqueous (liquid) phases in each tube. The percent liquid fraction of each capillary tube was calculated by dividing aqueous phase length by total length (gel+aqueous)×100. The three measurements of the liquid fraction (%) derived from each sample were then averaged to generate a single value for each treatment condition.
Due to abnormal ion transport caused by defects in the CFTR gene, airway secretions in CF patients are often desiccated. As a consequence, purulent CF sputum is comprised largely of a rigid and nonflowing biopolymer matrix, often referred to as gel phase, and lesser amounts of soluble, liquid phase. To assess the effect of Trx on the ratios of these two phases in sputum, compaction assay measurements were performed. […] After 20 minute incubation, the liquid fraction of each sample was determined by compaction assay.
To examine the effect of NADPH, additional samples from different donors were treated with 30 μM Trx, 0.1 μM TR and either 0, 0.2, 0.6, 1.0 or 2 mM NADPH for 20 minutes.
To assess the reproducibility of compaction assay measurements, sputum samples from three different CF donors were separated into aliquots and frozen. Specifically, freshly isolated CF sputum from three different donors (A, B, C) was separated into 275 μl aliquots and frozen. […] Results obtained from three independent experiments performed on each donor sample were used to evaluate assay reproducibility. On three consecutive days, aliquots were thawed, and treated with water, Trx and its reducing system, dithiothreitol (DTT), or no treatment.
The effectiveness of Trx in liquefying sputum was compared with other monothiol and dithiol reducing agents. Sputum samples were aliquoted and treated with Trx or GSH for 20 minutes and percent liquid determined by compaction assay. Initial compaction assay experiments compared the potencies of the Trx and GSH reducing systems in liquefaction of sputum in the presence of equimolar concentrations of NADPH. […] The analysis of Trx and NAC efficacy also was determined after 20 minute incubation, but on a different set of sputum samples.

Assay [2] is described as follows: Glycoprotein content of sputum aqueous and gel phases by PAS staining. Also noted: species or system human. Conditions: 10 or 30 μM Trx with reducing system, 20 min (FIG. 5). On the procedure: Extraction of soluble glycoproteins from sputum was performed according to methodology outlined by Davies et al. (Davies and Carlstedt, Methods Mol Biol 125:3-13, 2000). 275 μl of CF sputum was treated for 20 minutes at 37° C. with 25 μl of H2O alone or H2O containing Trx (10 or 30 μM)+NADPH (2 mM) and TR (0.1 μM). After treatment, 100 μl of H2O containing 1 mM disopropylflurophosphate and 10 μg ml aprotinin, was added to each sample, followed by 15 minute centrifugation at 22,000 g at 4° C. The resulting supernatant (aqueous phase) of each sample was transferred to a new microcentrifuge tube and stored at −20° C. […]
The glycoprotein content of aqueous and gel phase samples were evaluated by staining with periodic acid Schiff reagent (PAS) according to methodology outlined by Thornton et al. (Thornton et al., Methods Mol Biol 125:77-85, 2000). […]
Disulfide bonds on mucin glycoprotein polymers are potential targets for reduction by Trx. […] After treatment, the resulting soluble and insoluble phases of each sample were separated and analyzed for glycoprotein content by periodic acid/Schiff reagent (PAS) staining Specifically, fractions were loaded and electrophoresed in a 1% agarose (w/v) gel, transferred to PVDF membrane, and stained with periodic acid/Schiff reagent as described in materials and methods. […]

For the substance “Trx: Lyophilized recombinant E. coli Trx from Promega; protein disulfide reductase, used with its reducing system (TR + NADPH)”, the percent liquid fraction in assay [1] (10 μM Trx + 0.1 μM TR + 2 mM NADPH) was found to be 34.8±6.6%; in assay [1] (30 μM Trx + 0.1 μM TR + 2 mM NADPH), 54.6±10.4%; in assay [1] (60 μM Trx + 0.1 μM TR + 2 mM NADPH), 67.0±8.0%. Also, the “percentage of sputum present in the liquid phase” value is recorded as 70.55±18.13% in assay [1] (30 μM Trx + 0.1 μM TR + 2 mM NADPH, 20 min, different donors (FIG. 1B)) and 2.9%±1.3 in assay [1] (30 μM Trx + 0.1 μM TR without NADPH, 20 min (FIG. 1B)). Moreover, the “3 day range of percent of sputum in the liquid state” value in assay [1] (donor B, 30 μM Trx with reducing system) is recorded as 46-51%. In assay [1] (donor C, 30 μM Trx with reducing system), the “range of percent liquid values” was 62-81%. Also, the “amount of PAS-reactive glycoproteins in soluble and gel phases versus diluent” value in assay [2] was “greater amounts of PAS-reactive glycoproteins”. Further, in assay [2], the “electrophoretic mobility of glycoforms versus diluent-treated samples” value is listed as “greater electrophoretic mobility”.
